Measurements as given in patent publication US20250288581A1, “BALIPODECT FOR TREATING OR PREVENTING AUTISM SPECTRUM DISORDERS” (TAKEDA PHARMACEUTICAL COMPANY LIMITED, priority 2018, published 2025).
Where “and” joins values, the source holds several entries; their conditions need not be identical. Equal entries are not always repeated. Where two headings read alike, the source gives them in different places.

Columns and labels:
[1] = system: CDKL5 male hemizygous (-/Y) mice; assay: Hindpaw clasping (amplexus) test in CDKL5 knock-out mice model; type: in vivo; conditions: Compound A 5 mg/kg once per day oral gavage; vs CDKL5-/Y vehicle Group (2); FIG. 1
Description: A hind paw clasping test was performed in accordance with the procedures outlined by Wang et al., PNAS, vol. 109, no. 52, pp. 21516-21521 (2012). The test is done in a CDKL5 knock-out mice model. Mice are suspended for a two-minute trial. If clasping occurs for two seconds, the mouse is positive for CDKL5 deficiency, which is a neurological impairment. Wang et al. noted the CDKL5 mutant mice, but no quantification was made. Tang et al., J. Neurosci. 37(31):7420-7437 (2017) reported 17/18 (94%) hemi male mice were positive for the clasp phenotype.
(§1) Neurobehavioral assays were run when the mice were 8-10 weeks old. Tissues were collected at the end of the study to determine plasma and CNS PK.
If clasping occurs for two seconds, the mouse is positive for CDKL5 deficiency.

[2] = system: CDKL5 male hemizygous (-/Y) mice; assay: Open Field Test in CDKL5 knock-out mice model; type: in vivo; conditions: Compound A 5 mg/kg once per day oral; 15-minute trial; vs Groups (1) and (2); FIGS. 2A, 2B
Description: Spontaneous activity in an Open Field Arena is commonly used to assess general activity and ambulation. Mice were placed in the center of an arena for a fifteen-minute trial. The horizontal, vertical (rearing) and center activity are dependent variables.
FIG. 2A provides the results per minute from 0 to 15 minutes. FIG. 2B provides the results in five-minute intervals from 5 to 15 minutes.

[3] = Fraction unbound in plasma (fu, plasma); type: in vitro ADME; conditions: mouse
Description: An in vitro profile of the PDE10A inhibitor was created for the CDKL5-/Y mice.

[4] = Plasma and brain exposure analysis after oral administration; type: in vivo; conditions: CDKL5-/Y mice; for concentration at 24 h: male, CDKL5-/Y, mouse, 5 mg/kg
Description: as §1
In Table 1, “LLOQ” is the “lower limit of quantification”, and it is used to indicate the sensitivity of the assays. The numbers in plasma and brain columns are in ng/mL for plasma and ng/g for brain.

Male FMR1 knockout mice [5] = assay: Suppression of audiogenic seizures in FMR1 mouse model of Fragile X Syndrome; type: in vivo; conditions: 125 dB tone, vs vehicle Group (1); for Latency to seizure: 5-minute test, Compound A 5 mg/kg oral 150 min prior, MPEP 30 mg/kg i.p. 30 min prior, FIG. 5; for Percent seizure (seizure rates): Compound A 5 mg/kg oral, MPEP 30 mg/kg i.p., p<0.05, FIG. 6
Description: Male FMR1 knockout mice were bred at PsychoGenics. The mice were housed in OPTI-Mice ventilated cages for the duration of the study. All mice were acclimated to the environment, examined, handled, and weighed prior to initiation of the study to assure adequate health and suitability and to minimize non-specific stress associated with manipulation. During the course of the study, 12/12 light/dark cycles were maintained. The room temperature was maintained between 20 and 23° C. with a relative humidity maintained around 50%. Chow and water were provided ad libitum for the duration of the study. Each mouse was randomly assigned across treatment groups. The testing was performed during the animals' light cycle phase at 3 weeks of age.
Prior to audiogenic seizures, on test day, three groups of mice were pre-treated as follows: • Group (1): a vehicle orally administered at a dose volume of 10 mL/kg, 150 minutes prior to testing. • Group (2): 6-Methyl-2-(phenylethynyl) pyridine HCI (“MPEP”) (Sigma Aldrich; 30 mg/kg) was dissolved in sterile injectable saline and was administered by intraperitoneal injection at a dose volume of 10 mL/kg, 30 minutes prior to testing.
After the pre-treatments, the mice of Groups (1)-(3) were individually placed in a Plexiglas chamber and allowed to explore for 15 seconds. Then, they were exposed to a 125 dB tone. The observer was blinded to the pre-treatment conditions during the test. The mice were scored by the observer based on their response, latency, and seizure intensity during a 5-minute test as follows: • 0: no response • 1. wild running and jumping • 2: clonic seizures • 3: clonic-tonic seizures • 4: tonic seizures • 5: respiratory arrest
The following endpoints were reported. […] Latency to seizure (max 300 sec. if no seizure) • 2. Percent seizure • 3. Seizure score

Male FMR1 knockout mice [6] = assay: Open Field Test in FMR1 mouse model of FXS; type: in vivo; conditions: Compound A 5 mg/kg oral for two weeks; FIGS. 7 and 8
Description: Male FMR1 knockout (“KO”) mice and wild-type (“WT”) mice were bred at PsychoGenics. These mice were handled and chosen according to Example 5. However, the open field test started at 10 weeks of age, following 2 weeks of dosing. Three groups of mice were tested as follows: • Group (1): WT—Vehicle Group: a vehicle was orally administered for two weeks at a dose volume of 10 mL/kg. On testing days, the vehicle was administered 150 minutes prior to testing. • Group (2): FMR1 KO—Group: a vehicle was orally administered for two weeks at a dose volume of 10 mL/kg.
Open field chambers made of Plexiglas square chambers (27.3×27.3×20.3 cm; Med Associates Inc., St Albans, VT) surrounded by infrared photo beams (16×16×16) were used to measure horizontal and vertical activity of tested mice. The mice were brought into the chamber for at least 1 hour acclimation to the experimental room conditions prior to testing. Following 150 minutes of pre-treatment, the mice were placed in the center of the chamber for a 60-minute test period. After the 60-minutes, the mice were placed back into their home cage. During the test period, locomotor activity was measured in 5 minute intervals and total distance traveled was measured.

Male FMR1 knockout mice [7] = assay: Fear Conditioning test in FMR1 mouse model of FXS; type: in vivo
Description: After completion of the open field test described in Example 6, a Fear Conditioning test was conducted on the mice of Groups (1)-(3) in a fear conditioning system manufactured by Coulbourn Instruments (PA, USA).
On day 1, mice were placed in a conditioning chamber to habituate to the context for 2 minutes […]. A tone was presented for 20 seconds. 30 seconds after the CS ended, a foot shock (1 s, 0.5 mA) was presented (US). The pairing of the CS and US was repeated a total of 3 times, with an interval of 60 seconds between pairings. Mice remained in the conditioning chamber for another 60 seconds, and then returned to their home cage.
In the morning of day 2, mice were tested for contextual memory. Mice were placed in chambers for 5 minutes. In the afternoon of day 2, mice were tested for cued memory. Mice were placed in the conditioning chamber to habituate to the context for 2 minutes (Pre-Cue). Then, the CS was presented for a total of three times for 20 seconds, with 60 second inter-trial intervals. Freezing behavior, defined as the complete lack of movement, was captured automatically with a video system and Freeze View software (Coulbourn Instruments, PA, USA).

| fraction unbound [3] | concentration at 24 h ([4]; brain, po, oral 5 mg/kg once per day, 14 days, 24 hours after the last dose, LLOQ 0.5, read-out: Concentration in mouse brain, individual sample) | concentration at 24 h ([4]; brain, po, oral 5 mg/kg once per day, 14 days, 24 hours after the last dose, N=6-7, read-out: Concentration in mouse brain, Mean) | concentration at 24 h ([4]; plasma, oral, 24 hours after the last administration, read-out: plasma concentration in all mice vs target IC50 in vivo) | concentration at 24 h ([4]; plasma, po, oral 5 mg/kg once per day, 14 days, 24 hours after the last dose, N=6-7, read-out: Concentration in mouse plasma, Mean) | Structure (SMILES) | percentage of no clasping [1] | total distance traveled in the open field [2] | Concentration in mouse plasma, individual sample ([4]; oral 5 mg/kg once per day, 14 days, 24 hours after the last dose, LLOQ 0.1) | Concentration in mouse brain, individual sample ([4]; oral 5 mg/kg once per day, 14 days, 24 hours after the last dose, LLOQ 0.5) | Latency to seizure (Male FMR1 knockout mice [5]) | Percent seizure (seizure rates) (Male FMR1 knockout mice [5]) | hyperactivity (total distance traveled, 60-minute open field test) (Male FMR1 knockout mice [6]) | freezing response, contextual fear conditioning time course (Male FMR1 knockout mice [7]; 5 minute test, minute 2 and minute 5, Compound A 5 mg/kg oral, FIG. 10) | freezing behavior during Pre-Cue, cued fear conditioning (Male FMR1 knockout mice [7]; ANOVA between treatment groups, FIG. 11) | freezing response during Cue, cued fear conditioning (Male FMR1 knockout mice [7]; FMR1 mice, p=0.06, FIG. 11) | freezing response during Post-Cue, cued fear conditioning (Male FMR1 knockout mice [7]; FMR1 mice, FIG. 11) |
| --- | --- | --- | --- | --- | --- | --- | --- | --- | --- | --- | --- | --- | --- | --- | --- | --- |
| 0.116 | 36.3 ng/g | 46.1 ng/g | > 1.1 ng/mL | 4.9 ng/mL | COc1cn(-c2ccc(-n3cccn3)cc2F)nc(-c2ccnn2-c2ccccc2)c1=O [Compound A, 1-[2-fluoro-4-(1H-pyrazol-1-yl)phenyl]-5-methoxy-3-(1-phenyl-1H-pyrazol-5-yl)pyridazin-4(1H)-one] | increased the percentage of no clasping | significantly suppressed the total distance traveled | 4.3 ng/mL and 8.0 ng/mL and 4.4 ng/mL and 4.8 ng/mL and 2.8 ng/mL and 7.0 ng/mL and 3.1 ng/mL | 48.2 ng/g and 38.9 ng/g and 64.5 ng/g and 44.9 ng/g and 43.8 ng/g | increased the latency to seizure | significantly decreased seizure rates | suppresses hyperactivity | increased freezing response | no significant differences | strong trend to increasing freezing response | increased freezing response |
|  |  |  |  |  | Cc1cccc(C#Cc2ccccc2)n1.Cl [MPEP, 6-Methyl-2-(phenylethynyl) pyridine HCl, reference compound] |  |  |  |  | increased the latency to seizure | significantly decreased seizure rates |  |  |  |  |  |
